Values quoted from earlier work in patent US20100286262A1, “PTGS2 HAPLOTYPES” (priority 2007, published 2010).
Where two headings read alike, the source gives them in different places.

Columns and labels:
[1] = adjuvant setting; cited from earlier work
[2] = tested on: colorectal cancer (CRC) risk; conditions: cited from earlier work

Row | SMILES | Cardiotoxicity [1] | RR of CRC with aspirin use ([2]; cancers with weak or absent COX-2 expression, 0.73-1.26) | RR of CRC with aspirin use ([2]; tumours overexpressing COX-2, 0.52-0.78)
1 | O=c1[nH]cc(F)c(=O)[nH]1 [5-fluorouracil] | 2-4% | – | –
2 | CC(=O)Oc1ccccc1C(=O)O [aspirin] | – | 0.96 | 0.64
